Source: US9687432B2, “Antimicrobial bispyridine amine compositions and uses” (LONZA INC., priority 2012, dated 2017)
Counter-ions that a name gives are not always drawn. Like-named read-outs stand apart in the source and are kept apart here.

How the values were obtained:
[1] = tested on: EpiDerm™ Skin Model (EPI-200); assay: MatTek EpiDerm MTT Viability Assay (dermal irritancy); assay type: cell-based, human
Protocol: The MatTek EpiDerm™ MTT Viability Assay (MatTek Corp.) was utilized to determine the dermal irritancy and toxicology of octenidine distearate and octenidine dihydrochloride. The assay was performed using the EpiDerm™ Skin Model (EPI-200) as well as the Methyl thiazole tetrazolium (MT) Kit (MTT-100). The EpiDerm™ Skin Model closely parallels human skin, thus providing a useful in vitro method to assess dermal irritancy and toxicology.
Negative controls (treated with tissue culture water) were tested at 4 hours only. Following treatment, the viability of the tissues was determined using MTT uptake and reduction. The absorbance of each sample was measured at 540 nm using a reference wavelength of 690 nm. The viability was then expressed as a percent of Negative Control or Vehicle Control values. The mean percent viability for each time point was used to calculate and ET50, which represents the time at which the EpiDerm™ tissue viability was reduced 50%, compared to Negative Control or Vehicle Control tissues. The ET50 scores were converted to an irritancy classification.
MTT Reduction: 704 μl of mineral oil were heated at 70 C for 10 minutes.
Before use, tissues were incubated (37° C.±1 C, 5%±1% CO2) with assay medium (MatTek) for a one-hour equilibration. Equilibration medium was replaced with fresh medium before dosing.
The test articles were diluted as described in the sample preparation above. 100 μl of the test article dilution were mixed with 1 ml of MTT solution (1 mg/ml MTT diluted in Dulbecco's Modified Eagle's Medium (DMEM). A negative control (100 μl of tissue culture water) and a vehicle control (100 μl of mineral oil) were tested concurrently. The solutions were incubated at room temperature in the dark for 60 minutes. After incubation, the solutions were visually inspected for purple coloration, which is a positive indication that the test article reduced MTT. Since tissue viability is based on MTT reduction, direct reduction by a test article can exaggerate viability, making a test article seem less irritating that it really is.
100 μl of the test article dilutions were applied to the top of each EpiDerm™ tissue. The test articles remained in contact with the EpiDerm™ tissue for 1, 4 and 24 hours. Vehicle controls (TCH20 and mineral oil) for the test articles were tested at 4 hours. A positive control (1% Triton® X-100) was tested at 4 and 9 hours. […]
At the end of the selected exposure periods, each EpiDerm™ tissue was rinsed with phosphate buffered saline (PBS) and transferred to a 24-well plate containing 300 μl of MTT solution (1 mg/ml MTT in DMEM). […] An aliquot of the extracted MTT formazan was measured at 540 nm using a plate reader (pQuant Plate Reader, Bio-Tek Instruments, Winooski, Vt.), subtracting the absorbance at a reference wavelength of 690 nm.

Foam height test = assay type: physicochemical; conditions: for foam height, 30 sec / foam height, 1 min / foam height, 2 min / foam height, Initial Reading: 0.5 grams in 49.5 ml DI water; for foam height, 30 sec / foam height, 1 min / foam height, 2 min: 100 ml graduated cylinder; for foam height, Initial Reading: read in 100 ml graduated cylinder with 1 ml line increments; for Type of Foam: 0.5 grams of active in 49.5 ml DI water, blended 1 minute
Protocol: The testing was performed on samples containing octenidine dihydrochloride, octenidine distearate, PHMB HCl and the chloride salts benzalkonium chloride, benzethonium chloride, and cetylpyridinium chloride.
A 250 ml beaker was filed with 49.5 ml of deionized (DI) water for each sample. Then, 0.5 grams of the active was added to the beaker. Each solution was blended with a Bamix® wand homogenizer/mixer for 1 minute. The solution was then poured into a 100 ml graduated cylinder with 1 ml line increments. The height of the foam was documented at an initial, 30 second, 1 minute, and 2 minute time point.

[2] = tested on: mixed pool of bacteria (Staphylococcus epidermis, Corynebacterium minutissimum, Staphylococcus haemolyticus, Corynebacterium xerosis, Micrococcus luteus) on …; assay: Control of growth of skin microorganisms on pig skin; assay type: cell-based, skin bacteria on pig skin; conditions: 200 ppm in ethanol, 100 μl on pig skin, mixed bacterial pool, 35° C., 8 hour time period
Protocol: To further investigate the potential of the bispyridine amine compounds of the present invention for use as antimicrobial active ingredients in personal care products and cosmetics, the efficacy of octenidine distearate in controlling growth of skin microorganisms compared to Cosmocil® S was evaluated using different skin mimics. Testing was performed using pig skin. Although alternatives, such as VITRO-SKIN®, offered a less variable test matrix, it was decided that testing on pig skin was a better model for this application, as the pig skin allowed for actual growth of bacteria on the surface, not merely the survival of bacteria on the surface, providing more representative user skin conditions. The typical skin microorganisms Staphylococcus epidermis (ATCC 12228), Corynebacterium minutissimum (ATCC 23348), Staphylococcus haemolyticus (ATCC 29970), Corynebacterium xerosis (ATCC 373), and Micrococcus luteus (ATCC 4698), were grown in Tryptic Soy Broth (TSB) at 35-37° C. for approximately 24 hours. Each bacterial suspension was diluted 1:50 in TSB and then inoculum was prepared by mixing equal volume of each bacterial suspension. The final inoculum was plated in TSA to get an accurate count and used as a mixed pool of bacteria. […] Plates were incubated at 35-37° C. for 48 hours before the colonies were counted, and the mean values calculated.

| SMILES | ET50 ([1]; human, 1.25 % w/v) [h] | foam height, 30 sec (Foam height test) | foam height, 1 min (Foam height test) | foam height, 2 min (Foam height test) | foam height, Initial Reading (Foam height test) | Type of Foam (Foam height test) | ET50 [1] [h] | ET50 (hrs) [1] | Irritancy Classification [1] | efficacy in controlling growth of skin microorganisms (CFU/cm^2 of skin, FIG. 1) [2] |
| --- | --- | --- | --- | --- | --- | --- | --- | --- | --- | --- |
| CCCCCCCCN=c1ccn(CCCCCCCCCCn2ccc(=NCCCCCCCC)cc2)cc1 [Octenidine HCl, Octenidine dihydrochloride] | 1.1 | 80 | 78 | 70 | 86 | Slightly loose |  |  |  |  |
| CCCCCCCCCCCCCCCCCC(=O)O.CCCCCCCCCCCCCCCCCC(=O)O.CCCCCCCCN=c1ccn(CCCCCCCCCCn2ccc(=NCCCCCCCC)cc2)cc1 [Octenidine distearate, octenidine distearate] |  | 60 | 56 | 52 | 70 | Loose | >24.0 | greater than 24.0 hrs | Non-Irritating | equally as effective as Cosmocil® S |
